Measured values published in patent US6500817B1, “Thiazolyl urea derivatives and their utilization as antiviral agents” (Bayer Aktiengesellschaft, priority 1999, dated 2002).

Legend:
HSV-1 F = assay: anti-HSV screening test (cytopathogenic effect, fluorescein diacetate fluorescence readout) in Vero cells; assay type: cell-based; conditions: Human alphaherpesvirus 1; Vero cells infected with HSV-1 F, m.o.i. 0.0025; half-maximum fluorescence intensity in relation to the uninfected cell control; read-out: IC50 HSV-1 F/Vero
Procedure: (§1) HSV (HSV-1 Walki, HSV-1F or HSV-2G) was replicated on Vero cells (ATCC CCL-81) under the following conditions: the cells were grown in M199 medium (5% fetal calf serum, 2 mM glutamine, 100 IU/ml penicillin, 100 μg/ml streptomycin) in cell culture bottles at 37° C. and 5% CO2. The cells were split 1:4 on each of two occasions each week. For the infection, the medium was removed, and the cells were washed with Hank's solution, detached with 0.05% trypsin, 0.02% EDTA (Seromed L2143) and incubated at a density of 4×10^5 cells per ml under the conditions mentioned above for 24 hours. The medium was then removed, and the virus solution was added at an m.o.i. of <0.05 in a volume of 2 ml per 175 cm^2 of surface area. After incubation under the conditions mentioned for one hour, the medium was made up to a volume of 50 ml per 175 cm^2 bottle. […] The virus was released by freezing (−80° C.) and thawing (37° C.) twice. The cell debris was removed by centrifugation (300 g, 10 min, 4° C.) and the supernatant was frozen in aliquots at −80° C.
(§2) The anti-HSV effect was determined in a screening test system in 96-well microtitre plates with the assistance of various cell lines of neuronal, lymphoid and epithelial origin, such as, for example, Vero (African green monkey kidney cell line), MEF (murine embryonic fibroblasts), HELF (human embryonic fibroblasts), NT2 (human neuronal cell line) or Jurkat (human lymphoid T-cell line).
(§3) The substances dissolved (50 mM) in DMSO (dimethyl sulphoxide) are investigated on microtitre plates (for example 96-well MTP) in final concentrations of 250-0.5 μM (micromolar) in duplicate determinations (4 substances/plate). For potent substances, the dilutions are continued over several plates as far as 0.5 pM (picomolar). Toxic and cytostatic effects of the substance are also recorded. After the appropriate dilutions of the substance (1:2) on the microtitre plate, a suspension of cells (1×10^4 cells per well) such as, for example, Vero cells in M199 (medium 199) with 5% fetal calf serum, 2 mM glutamine and optionally 100 IU/ml penicillin and 100 μg/ml streptomycin or MEF cells in EMEM (Eagle's minimum essential medium) with 10% fetal calf serum, 2 mM glutamine and optionally 100 IU/ml penicillin and 100 μg/ml streptomycin, or HELF cells in EMEM with 10% fetal calf serum, 2 mM glutamine and optionally 100 IU/ml penicillin and 100 μg/ml streptomycin, or NT2 and Jurkat cells in DMEM ([…] glucose plus pyridoxine) with 10% fetal calf serum, 2 mM glutamine, 1 mM sodium pyruvate, nonessential amino acids and optionally 100 IU/ml penicillin and 100 μg/ml streptomycin is put in each well, and the cells in the relevant wells are infected with an appropriate amount of virus (HSV-1 F or HSV-2 G with an m.o.i (multiplicity of infection) of 0.0025 for HELF, Vero and MEF cells and with an m.o.i of 0.1 for NT2 and Jurkat cells). The plates are then incubated at 37° C. in a CO2 incubator (5% CO2) for several days. […] The plates are initially evaluated optically using a microscope and then analysed with a fluorescent dye. For this purpose, the cell culture supernatant is aspirated out of all the wells of the MTP and charged with 200 μl of PBS washing solution.

HSV-2 G = assay: as above; assay type: cell-based; conditions: Human alphaherpesvirus 2; Vero cells infected with HSV-2 G, m.o.i. 0.0025; half-maximum fluorescence intensity in relation to the uninfected cell control; read-out: IC50 HSV-2 G/Vero
Procedure: as §1, §2, §3

| SMILES | melting point | IC50 (HSV-1 F) [nM] | IC50 (HSV-2 G) [nM] |
| --- | --- | --- | --- |
| CNS(=O)(=O)c1sc(N(C)C(=O)Nc2ccc(N3CCCC3)cc2)nc1C [Example 94] |  | 20 | 50 |
| CNS(=O)(=O)c1sc(N(C)C(=O)Nc2ccc(-c3ccccc3)cc2)nc1C [Example 123] | 210 °C | 1 | 5 |
| CCOC(=O)N1CC2CCN(c3ccc(NC(=O)N(C)c4nc(S(=O)(=O)NC5CC5)c(C)s4)cc3)C2C1 (stereo not drawn) | 140 °C |  |  |
| CCOc1ccc(NC(=O)N(CCN(C)C)c2nc(C)c(S(=O)(=O)NC)s2)cc1 [Example 2, 2-{[2-(Dimethylamino)ethyl][(4-ethoxyanilino)carbonyl]amino}-N,4-dimethyl-1,3-thiazole-5-sulphonamide] |  | 200 | 1000 |
| Cc1nc(N(C)C(=O)Nc2ccc(N3CCOCC3)cc2)sc1S(=O)(=O)N(C)Cc1ccccn1 | 148 °C |  |  |
| Cc1nc(N(C)C(=O)Nc2ccc(N3CCSCC3)cc2)sc1S(=O)(=O)N(C)C | 196 °C |  |  |
| Cc1nc(N(CC2CCCO2)C(=O)Nc2ccc(-c3ccccc3)cc2)sc1S(N)(=O)=O (stereo not drawn) | 165 °C |  |  |
| CCOc1ccc(NC(=O)N(C)c2nc(C)c(S(=O)(=O)NCc3ccccn3)s2)cc1 | 154 °C |  |  |
| COCCN(C(=O)Nc1ccc(-c2ccccc2)cc1)c1nc(C)c(S(N)(=O)=O)s1 [151] | 167 °C |  |  |
| CCOc1ccc(NC(=O)N(Cc2ccccc2)c2nc(C)c(S(=O)(=O)NC3CC3)s2)cc1 | 178 °C |  |  |
| CNS(=O)(=O)c1sc(N(CCCN2CCCC2=O)C(=O)Nc2ccc(-c3ccccc3)cc2)nc1C | 148 °C |  |  |
| CCOC(=O)N1CC2CCN(c3ccc(NC(=O)N(C)c4nc(S(=O)(=O)NC)c(C)s4)cc3)C2C1 (stereo not drawn) | 153 to 154 °C |  |  |
| CCc1nc(N(C)C(=O)Nc2ccc(N3CCOCC3)cc2)sc1S(=O)(=O)N(C)C | 199 °C |  |  |
| Cc1nc(N(C)C(=O)Nc2ccc(N3CCOCC3)cc2)sc1S(N)(=O)=O | 225 °C |  |  |
| CNS(=O)(=O)c1sc(N(C)C(=O)Nc2ccc(-c3cccc(OC)c3)cc2)nc1C | 178 °C |  |  |
| Cc1nc(N(C)C(=O)Nc2ccc(-c3ccccc3)cc2)sc1S(=O)(=O)N(C)C | 228 °C |  |  |
| Cc1nc(N(Cc2ccncc2)C(=O)Nc2ccc(N3CCOCC3)cc2)sc1S(N)(=O)=O | 186 °C |  |  |
| CNS(=O)(=O)c1sc(N(C)C(=O)Nc2ccc(C3=NOCCO3)cc2)nc1C | 192 to 194 °C |  |  |
| CNS(=O)(=O)c1sc(N(Cn2ccnc2)C(=O)Nc2ccc(-c3ccccc3)cc2)nc1C | 205 °C |  |  |
| COC(=O)c1ccc(NC(=O)N(C)C2=NC(Cl)C(S(=O)(=O)N(C)C)S2)cc1 (stereo not drawn) | 220 °C |  |  |
| Cc1nc(N(C)C(=O)Nc2ccc(N3CCOCC3)cc2)sc1S(=O)(=O)NCc1ccccc1 | 216 °C |  |  |

| SMILES | melting point | IC50 (HSV-1 F) [nM] | IC50 (HSV-2 G) [nM] |
| --- | --- | --- | --- |
| COCCN(C(=O)Nc1ccc(-c2ccccc2)cc1)c1nc(C)c(S(=O)(=O)NC2CC2)s1 | 160 °C |  |  |
| CCCOc1ccc(NC(=O)N(C)C2=CC(C)=C(S(=O)(=O)NCCOC)C2)cc1 | 97 °C |  |  |
| CCOc1ccc(NC(=O)Nc2nc(C)c(S(=O)(=O)N3CCCC3)s2)cc1 | 198 °C |  |  |
| Cc1nc(N(C)C(=O)Nc2ccc(N3CCOCC3)cc2)sc1S(=O)(=O)NC1CC1 | 235 °C |  |  |
| CNS(=O)(=O)c1sc(N(C)C(=O)Nc2ccc(-c3ccccc3C)cc2C)nc1C | 148 °C |  |  |
| CN(C(=O)Nc1ccc(-n2ccnn2)cc1)c1nc(Cl)c(S(=O)(=O)N(C)C)s1 | 225 °C |  |  |
| Cc1nc(N(C)C(=O)Nc2ccc(-c3ccccc3)cc2)sc1S(N)(=O)=O | 221 °C |  |  |
| CNS(=O)(=O)c1sc(N(CC2CCCO2)C(=O)Nc2ccc(-c3ccccc3)cc2)nc1C (stereo not drawn) | 178 °C |  |  |
| CCCN(C(=O)Nc1ccc(-c2ccccc2)cc1)c1nc(C)c(S(=O)(=O)NCCO)s1 | 156 °C |  |  |
| CNS(=O)(=O)c1sc(N(CCCN(C)c2ccccc2)C(=O)Nc2ccc(-c3ccccc3)cc2)nc1C | 148 °C |  |  |
| CCOC(=O)N1CC2CCC(c3ccc(NC(=O)N(C)c4nc(C)c(S(=O)(=O)N(C)C)s4)cc3)C2C1 (stereo not drawn) | 136 to 137 °C |  |  |
| CC(=O)Nc1cc(N2CCCC2)ccc1NC(=O)N(C)c1nc(C)c(S(=O)(=O)N(C)C)s1 [168] | 185 to 187 °C (dec.) |  |  |
| CSc1ccc(NC(=O)N(C)c2nc(Cl)c(S(=O)(=O)N(C)C)s2)cc1 | 194 °C |  |  |
| CN(C(=O)Nc1ccc(N2CCOCC2)cc1)c1nc(Cl)c(S(=O)(=O)N(C)C)s1 [3] | 197 °C |  |  |
| Cc1nc(N(C)C(=O)Nc2ccc(C3=NOCCO3)cc2)sc1S(=O)(=O)NC1CC1 | > 225 °C |  |  |
| CCOc1ccc(NC(=O)N(C)c2ncc(S(=O)(=O)N(C)C)s2)cc1 | 194 °C |  |  |
| CCOc1ccc(NC(=O)N(Cc2cccnc2)c2nc(C)c(S(=O)(=O)N(C)C)s2)cc1 | 180 °C |  |  |
| CCOc1ccc(NC(=O)N(C)c2nc(CC)c(S(=O)(=O)N(C)C)s2)cc1 | 176 °C |  |  |
| CCOc1ccc(NC(=O)N(Cc2ccncc2)c2nc(C)c(S(=O)(=O)N(C)C)s2)cc1 | 188 °C |  |  |
| CCCC(=O)Nc1cc(N2CCCC2)ccc1NC(=O)N(C)c1nc(C)c(S(=O)(=O)N(C)C)s1 | 164 °C |  |  |
| CN(C(=O)Nc1ccc(N2CCOCC2)cc1)c1nc(Cl)c(S(=O)(=O)NCc2ccccc2)s1 | 201 °C |  |  |

More lines, main results first:

| melting point | SMILES | IC50 (HSV-1 F) [nM] | IC50 (HSV-2 G) [nM] |
| --- | --- | --- | --- |
| 148 °C | CCOc1ccc(NC(=O)N(CCCCNC(=O)OC(C)(C)C)c2nc(C)c(S(=O)(=O)NC)s2)cc1 |  |  |
| 143 °C | CCCN(C(=O)Nc1ccc(COC)cc1)c1nc(C)c(S(=O)(=O)NCC(F)(F)F)s1 |  |  |
| 165 °C | CCCOc1ccc(NC(=O)N(CCN(C)C)c2nc(C)c(S(=O)(=O)NC)s2)cc1 |  |  |
| 170 °C | CNS(=O)(=O)c1sc(N(CCOC)C(=O)Nc2ccc(-c3ccccc3)cc2)nc1C |  |  |
| 154 °C | CCOc1ccc(NC(=O)N(C)c2nc(C)c(S(=O)(=O)NCCn3ccnn3)s2)cc1 |  |  |
| 152 °C | CCOc1ccc(NC(=O)N(CCCCNC(=O)OC(C)(C)C)c2nc(C)c(S(=O)(=O)N(C)C)s2)cc1 |  |  |
| 162 °C | CCOc1ccc(NC(=O)N(C)c2nc(C)c(S(=O)(=O)NCc3ccco3)s2)cc1 |  |  |
| 163 °C | CCOc1ccc(NC(=O)N(C)c2nc(C)c(S(=O)(=O)N(C)CC)s2)cc1 |  |  |
| 162 °C | CCOc1ccc(NC(=O)N(CCN(C)C)c2nc(C)c(S(N)(=O)=O)s2)cc1 |  |  |
| 183 °C | CCOc1ccc(NC(=O)N(C)c2nc(Cl)c(S(=O)(=O)NC)s2)cc1 |  |  |
| 210 °C | CCOc1ccc(NC(=O)N(C)c2nc(CC)c(S(=O)(=O)NC)s2)cc1 |  |  |
| 164 °C | CCOc1ccc(NC(=O)N(CCNC(=O)OC(C)(C)C)c2nc(C)c(S(=O)(=O)N(C)C)s2)cc1 |  |  |
| 162 °C | CCOc1ccc(NC(=O)N(CCOC)c2nc(C)c(S(=O)(=O)N(C)C)s2)cc1 |  |  |
| 168 °C | CCOc1ccc(NC(=O)N(C)c2nc(C)c(S(=O)(=O)N(C)C)s2)cc1 |  |  |
| 163 °C | CCCOc1ccc(NC(=O)N(CCOC)c2nc(CC)c(S(N)(=O)=O)s2)cc1 |  |  |
| 163 °C | CCOc1ccc(NC(=O)N(CCN(C)C)c2nc(C)c(S(=O)(=O)N(C)C)s2)cc1 |  |  |
| 173 °C | CCOc1ccc(NC(=O)N(CC(C)C)c2nc(C)c(S(=O)(=O)N(C)C)s2)cc1 |  |  |
| 158 °C | CCOc1ccc(NC(=O)N(CC2CCCN2CC)c2nc(C)c(S(=O)(=O)N(C)C)s2)cc1 (stereo not drawn) |  |  |
| 159 °C | CCOc1ccc(NC(=O)N(CCOC)c2nc(C)c(S(=O)(=O)NC)s2)cc1 |  |  |
| 146 °C | CCOc1ccc(NC(=O)N(CCCNC(=O)OC(C)(C)C)c2nc(C)c(S(=O)(=O)NC)s2)cc1 |  |  |
